Experimental data reported in US20060241172A1, “Benzodioxane and benzodioxolane derivatives and uses thereof” (Wyeth, priority 2005, published 2006).

Experiments:
[1] = target: T1, human 5-hydroxytryptamine-2C (h5-HT2C) receptor (Homo sapiens, UniProt P28335); assay: 5-HT2C binding: [125I]DOI displacement in membranes of transfected CHO cells; conditions: read-out: 5-HT2C Binding Ki avg
T1 construct: expressed in transfected cells; host or cells: CHO (Chinese Hamster Ovary) cells; membranes
T1 sequence (P28335 33-458): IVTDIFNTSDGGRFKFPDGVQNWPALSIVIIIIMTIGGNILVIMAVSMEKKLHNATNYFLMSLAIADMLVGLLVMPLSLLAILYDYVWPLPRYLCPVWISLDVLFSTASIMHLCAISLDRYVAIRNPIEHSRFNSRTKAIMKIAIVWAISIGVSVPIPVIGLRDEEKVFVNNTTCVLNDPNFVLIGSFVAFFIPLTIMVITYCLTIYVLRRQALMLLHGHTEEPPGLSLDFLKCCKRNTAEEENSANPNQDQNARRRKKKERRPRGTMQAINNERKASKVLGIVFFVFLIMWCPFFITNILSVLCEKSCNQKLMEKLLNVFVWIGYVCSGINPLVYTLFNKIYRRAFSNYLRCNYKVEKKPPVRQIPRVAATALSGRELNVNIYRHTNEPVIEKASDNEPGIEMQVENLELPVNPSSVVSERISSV

[2] = target: T2, human 5-HT2C receptor (Homo sapiens, UniProt P28335); assay: 5-HT2C receptor-stimulated calcium mobilization (FLIPR) in CHO cells; type: cell-based; conditions: for Emax: CHO, read-out: 5-HT2C Function EMax (%); for EC50: read-out: 5-HT2C Function EC50
T2 sequence (P28335 33-458): T1 sequence (P28335 33-458)

[3] = tested on: male C57BL/6J mice and lean Zucker rats; assay: Obesity Model A: acute food intake after overnight fast, oral dosing; type: in vivo
Description: To evaluate acute in vivo efficacy of various compounds, 7 weeks-old male C57BL/6J mice were obtained from The Jackson Laboratory (Bar Harbor, Me.) and 6 weeks-old lean Zucker rats were purchased from Charles River Laboratories (Wilmington, Mass.). Mice and rats were single housed in a temperature-controlled (25° C.) facility with a 12-h light/dark cycle. Animals were allowed normal chow diet (Rodent chow #5001, PharmaServ, Framingham, Mass.) and water ad libitum. After one week acclimation, animals were randomized to vehicle (saline) or treatment groups. Animals were fasted overnight (16 hrs) and orally dosed with vehicle or compounds. Thirty minutes after compound administration, animals were given a weighed amount of food, and food intake was recorded 30 minutes, 1 h, 2 h, 4 h, 7 h and 24 h after refeeding.

[4] = target: T3, human serotonin 5-HT2C receptor (Homo sapiens, UniProt P28335); assay: Saturation binding of [125I] DOI; conditions: saturation binding with increasing concentrations of [125I] DOI; read-out: dissociation constant, KD
T3 construct: expressed in transfected cells; host or cells: CHO (Chinese Hamster Ovary) cells; membranes
T3 sequence (P28335 33-458): T1 sequence (P28335 33-458)
Description: DOI. The reaction was initiated by the final addition of 100 μL of tissue suspension containing 50 μg of receptor protein. […] Test compounds were added in 20.0 μL. The mixture was incubated at room temperature for 60 min. The incubation was stopped by rapid filtration. The bound ligand-receptor complex was filtered off on a 96 well unifilter with a Packard® Filtermate 196 Harvester. The bound complex caught on the filter disk was dried in a vacuum oven heated to 60° C. and the radioactivity measured by liquid scintillation with 40 μL Microscint-20 scintillant in a Packard TopCount® equipped with six (6) photomultiplier detectors.

[5] = 10 mpk oral, 0.5 hour after refeeding
[6] = 10 mpk oral, 2 hours after refeeding
[7] = 10 mpk oral, 4 hours after refeeding
[8] = 30 mpk oral, 0.5 hour after refeeding
[9] = 30 mpk oral, 2 hours after refeeding
[10] = 30 mpk oral, 4 hours after refeeding
[11] = 50 mpk oral, 0.5 hour after refeeding
[12] = 50 mpk oral, 2 hours after refeeding
[13] = 50 mpk oral, 4 hours after refeeding

SMILES	Ki [1] [nM]	Emax [2] [%]	EC50 [2] [nM]	further results
NCC1COc2cccc(-c3ccccc3Cl)c2O1 (centres unmarked) [Compound I-1, {[8-(2-Chlorophenyl)-2,3-dihydro-1,4-benzodioxin-2-yl]methyl}amine]	< 50	60	< 100	% Reduction food intake (vs vehicle) [3, 5]: 4 ± 8%; % Reduction food intake (vs vehicle) [3, 6]: 6 ± 8%; % Reduction food intake (vs vehicle) [3, 7]: 16 ± 8%; % Reduction food intake (vs vehicle) [3, 8]: 60 ± 12%; % Reduction food intake (vs vehicle) [3, 9]: 40 ± 8%; % Reduction food intake (vs vehicle) [3, 10]: 42 ± 5%; % Reduction food intake (vs vehicle) [3, 11]: 74 ± 17%; % Reduction food intake (vs vehicle) [3, 12]: 55 ± 13%; % Reduction food intake (vs vehicle) [3, 13]: 48 ± 13%
COc1cc(CC(C)N)c(OC)cc1I (centres unmarked) [[^125I] DOI]				Kd [4]: 0.4 nM
NCC1COc2cccc(-c3ccccc3C(F)(F)F)c2O1 (centres unmarked) [Compound I-4, ({8-[2-(Trifluoromethyl)phenyl]-2,3-dihydro-1,4-benzodioxin-2-yl}methyl)amine]	< 50	70	< 100	% Reduction food intake (vs vehicle) [3, 5]: 9 ± 6%; % Reduction food intake (vs vehicle) [3, 6]: 5 ± 8%; % Reduction food intake (vs vehicle) [3, 7]: 2 ± 7%; % Reduction food intake (vs vehicle) [3, 8]: 29 ± 7%; % Reduction food intake (vs vehicle) [3, 9]: 14 ± 8%; % Reduction food intake (vs vehicle) [3, 10]: 0 ± 16%; % Reduction food intake (vs vehicle) [3, 11]: 56 ± 10%; % Reduction food intake (vs vehicle) [3, 12]: 27 ± 11%; % Reduction food intake (vs vehicle) [3, 13]: 8 ± 14%
NC[C@H]1COc2cccc(-c3c(Cl)cccc3Cl)c2O1 [Compound I-46, {[(2S)-8-(2,6-Dichlorophenyl)-2,3-dihydro-1,4-benzodioxin-2-yl]methyl}amine]	< 50	50	< 100	% Reduction food intake (vs vehicle) ([3]; 1 mpk oral, 0.5 hour after refeeding): 0 ± 12%; % Reduction food intake (vs vehicle) ([3]; 1 mpk oral, 2 hours after refeeding): 0 ± 6%; % Reduction food intake (vs vehicle) ([3]; 1 mpk oral, 4 hours after refeeding): 1 ± 8%; % Reduction food intake (vs vehicle) ([3]; 3 mpk oral, 0.5 hour after refeeding): 12 ± 8%; % Reduction food intake (vs vehicle) ([3]; 3 mpk oral, 2 hours after refeeding): 11 ± 5%; % Reduction food intake (vs vehicle) ([3]; 3 mpk oral, 4 hours after refeeding): 14 ± 7%; % Reduction food intake (vs vehicle) [3, 5]: 74 ± 7%; % Reduction food intake (vs vehicle) [3, 6]: 68 ± 5%; % Reduction food intake (vs vehicle) [3, 7]: 51 ± 4%; % Reduction food intake (vs vehicle) [3, 8]: 78 ± 14%; % Reduction food intake (vs vehicle) [3, 9]: 88 ± 8%; % Reduction food intake (vs vehicle) [3, 10]: 82 ± 7%; % Reduction food intake (vs vehicle) [3, 11]: 100 ± 11%; % Reduction food intake (vs vehicle) [3, 12]: 100 ± 5%; % Reduction food intake (vs vehicle) [3, 13]: 98 ± 4%
CNCC1COc2cccc(-c3ccccc3OC)c2O1 (centres unmarked) [Compound I-19, {[8-(2-Methoxyphenyl)-2,3-dihydro-1,4-benzodioxin-2-yl]methyl}methylamine]	> 200	20	100 to 500	
CNCC1COc2cccc(-c3ccccc3Cl)c2O1 (centres unmarked) [Compound I-21, {[8-(2-Chlorophenyl)-2,3-dihydro-1,4-benzodioxin-2-yl]methyl}methylamine]	< 50	40	< 100	
Clc1ccc(-c2cccc3c2OC(CNCC2CC2)CO3)c(Cl)c1 (centres unmarked) [Compound I-42, (Cyclopropylmethyl) {[8-(2,4-dichlorophenyl)-2,3-dihydro-1,4-benzodioxin-2-yl]methyl}amine]	> 200		> 500	
NCC1COc2cccc(-c3ccc(F)cc3F)c2O1 (centres unmarked) [Compound I-14, {[8-(2,4-Difluorophenyl)-2,3-dihydro-1,4-benzodioxin-2-yl]methyl}amine]	< 50	70	< 100	
Cc1ccc(C)c(-c2cccc3c2OC(CN)CO3)c1 (centres unmarked) [Compound I-11, {[8-(2,5-Dimethylphenyl)-2,3-dihydro-1,4-benzodioxin-2-yl]methyl}amine]	> 200	60	100 to 500	
COc1ccccc1-c1cc(Cl)cc2c1O[C@@H](CN)CO2 [Compound I-61, (2S)-[6-Chloro-8-(2-methoxy-phenyl)-2,3-dihydro-benzo[1,4]dioxin-2-yl]-methylamine]	< 50	50	100 to 500	
Cc1ccccc1-c1cccc2c1OC(CN)CO2 (centres unmarked) [Compound I-3, {[8-(2-Methylphenyl)-2,3-dihydro-1,4-benzodioxin-2-yl]methyl}amine]	< 50	60	< 100	
CCCNCC1COc2cccc(-c3ccc(Cl)cc3Cl)c2O1 (centres unmarked) [Compound I-35, N-{[8-(2,4-Dichlorophenyl)-2,3-dihydro-1,4-benzodioxin-2-yl]methyl}propan-1-amine]	50 to 200		> 500	
NCC1Oc2cc(Cl)cc(-c3ccccc3Cl)c2O1 (centres unmarked) [Compound I-90, [6-Chloro-4-(2-chloro-phenyl)-benzo[1,3]dioxol-2-yl]-methylamine]	< 50	80	< 100	
Cc1cccc(C)c1-c1cccc2c1OC(CN)CO2 (centres unmarked) [Compound I-12, {[8-(2,6-Dimethylphenyl)-2,3-dihydro-1,4-benzodioxin-2-yl]methyl}amine]	< 50	70	< 100	
